According to US5587382A, “6,9-bis[(2-aminoethyl) amino]benzo [g]isoquinoline-5,10- dione dimaleate; an aza-anthracenedione with reduced cardiotoxicity” (priority 1995, dated 1996):

Legend:
heart [1] = experiment: Cardiotoxic effects (general statement of the invention); conditions: in vivo
[2] = Cyclic voltammetry in aqueous media (redox potential); assay type: physicochemical; conditions: for E1/2 (reduction potential): room temperature, saturated calomel reference, scan rate 0.4 V/s
Method: The anthracene 9,10-dione moiety is known to undergo redox processes. The results of cyclic voltammetry measurements in aqueous media are reported in FIG. 1 and summarized as reduction potentials in Table 1.
Cyclic voltammetry (CV) measurements were performed at room temperature using an Amel scanning potentiostat at the following settings: Initial potential -0.1 V, switching potential […], scan rate 0.4 V/s. A three electrode system was used with a reference saturated calomel electrode and a platinum wire counter electrode; a hanging mercury drop electrode (HMDE, Metrohm) was the working electrode.

tumors = conditions: cited from earlier work; for antitumor activity: in vivo; for cardiac toxicity (background): clinical / background
heart [3] = experiment: Histopathological evaluation of potential cardiotoxic effect in nude mice during antitumor activity tests (MX-1 bearing); assay type: in vivo, mouse (CD1 Nu/Nu female); conditions: for cardiotoxicity (conclusion): antitumor protocol, equiactive doses
Method: During an antitumor activity experiment histopathologic examination was carried out on plastic sections (blue toluidine stained) of hearts of some animals sacrificed at the end of the observation period.
In this experiment (Table 2) CD1 Nu/Nu female mice (8 animals/groups) were transplanted sc with tumor fragments of human mammary carcinoma MX-1. BBR 2778 (60 mg/kg/day) and mitoxantrone (4.5 mg/kg/day) (i.e., at their equiactive doses) were i.v. given once a week for three weeks when tumor weight reached an average of 100-200 mg; animals were sacrificed 60 days after the last treatment.
Myocardial lesions were scored according to Bertazzoli, C. et al. (1979) Cancer Treat., Rep.: 63, 1877-1883. Briefly, lesions are scored as follows:
1: sarcoplasmatic microvacuolizations and/or inclusions, and either interstitial or cellular edema;
2: as in 1 plus either sarcoplasmatic macrovacuolizations or one or more of atrophy, necrosis, fibrosis, endocardial lesions and thrombi;
0.5: less than 10 single altered myocytes in the whole heart section;
1: scattered single altered myocytes (>10);
2: scattered small groups of altered myocytes;
3: widely spread small groups of altered myocytes;
4: confluent groups of altered myocytes;
The product of severity degree (1 or 2) times the extension degree (from 0 to 5) gives the T.C.S. (total cardiotoxicity score, graded from 0 to 10) for each animal. Mean Total Score (M.T.S.) for each group is calculated from T.C.S. of all the group animals.

heart [4] = experiment: Single dose cardiotoxicity in i.v. treated rats (Study No. 1); assay type: in vivo, rat (S.D. Crl:CDBR, male); conditions: 6 weeks; for Heart Weight (%): control 100
Text: (§1) In the rat (Study No. 1, Table No. 3), the respective effects on the myocardium of BBR 2778 and mitoxantrone were compared. Both drugs were i.v. administered in single equitoxic doses (LD10). In the mouse (Study No. 2, Table No. 4), the respective effects on the myocardium of BBR 2778, mitoxantrone, and doxorubicin, using multiple i.v. equiactive doses with similar activity on solid tumors, were compared. Also in the mouse, in a different study (Study No. 3, Table No. 5), the respective effect on the myocardium of i.v. BBR 2778 dose-active range on murine leukemia was compared with mitoxantrone.
(§2) Cardiac lesions in the three studies were evaluated in accordance with a qualitative/quantitative method expressly devised for anthracyclines (Bertazzoli C. et al. Cancer Treat. Rep. 63:1877-1883, 1979; Solcia E. et al. Tumori, 67:461-472, 1981).
Strain: S.D. (Crl:CDBR)
mixtoxantrone 4.9 mg/kg
(§3) heart weight and microscopic lesions
paraffin sections of heart (formalin fixed
and haematoxilineos in stained) collected 6
(§4) the product of severity degree (1 or 2)
(§5) times the extension degree (from 0 to 5)
(§6) gives the T.C.S. (Total Cardiotoxicity
(§7) Score, graded from 0 to 10) for each
(§8) animal. M.T.S. (Mean Total Score) for each
(§9) group is calculated from the T.C.S. of all

leukemia = experiment: Previous antitumor activity studies against leukemia in CD2F1 mice; assay type: in vivo, mouse (CD2F1); conditions: BBR 2778 12 mg/kg/day, mitoxantrone 3 mg/kg/day i.v.
heart [5] = experiment: Multiple dose cardiotoxicity in i.v. treated mice (Study No. 2); assay type: in vivo, mouse (C57BL/6NCrlBR, female)
Text: as §1, §2, §3
(§10) plastic sections of heart (formalin fixed
and blue toluidine stained) collected 60
and 90 days from the first treatment
as §4, §5, §6, §7, §8, §9

[6] = polarographic; Showalter et al 1986; cited from earlier work
myocardium = conditions: mice; cited from earlier work
[7] = equivalent concentrations; cited from earlier work
bone marrow = experiment: Myelotoxicity study (RBC, WBC, PLT counts); assay type: in vivo, mouse (CD2F1, male); conditions: 3 mg/kg/day i.v. days 1, 4, 7; at nadir day
Method: Using CD2F1 mice, the respective effects on the bone marrow of BBR 2778 and mitoxantrone were compared. The drugs were administered i.v. in multiple doses.
Compounds: BBR 2778 12 mg/kg/day
mixtoxantrone 3 mg/kg/day
Parameters: red blood cells (RBC), white blood cells
Equipment: Delcon Cellanalyzer CA580A

human liver = conditions: metabolic reduction by NADPH; cited from earlier work
heart [8] = experiment: Multiple dose cardiotoxicity in i.v. treated mice (Study No. 3); assay type: in vivo, mouse (CD1, female)
Text: as §1, §2
______________________________________
mixtoxantrone 1.1, 1.8 & 2.5
Treatment: twice a week for 5 weeks (10 dosing)
low- and mid- dose treated groups;
twice a week for 4 weeks (7 dosing) in high-
dose treated groups. In these groups, the
administration was suspended because of the
high-dose treated group.
as §10
and blue toluidine stained) collected 78
and 139 days from the first administration
as §4, §5, §6, §7, §8, §9

[9] = cyclic voltammetry, aqueous media
[10] = 65.1 mg/kg i.v. single dose (LD10)
[11] = 6 mg/kg i.v., cumulative 24 mg/kg, 60 days after first administration
[12] = 6 mg/kg i.v., cumulative 24 mg/kg, 90 days after first administration
[13] = 7.5 mg/kg i.v., cumulative 30 mg/kg, 60 days after first administration
[14] = 7.5 mg/kg i.v., cumulative 30 mg/kg, 90 days after first administration
[15] = 3 mg/kg i.v., cumulative 12 mg/kg, 60 days after first administration
[16] = 3 mg/kg i.v., cumulative 12 mg/kg, 90 days after first administration
[17] = 4 mg/kg i.v., cumulative 16 mg/kg, 60 days after first administration
[18] = 4 mg/kg i.v., cumulative 16 mg/kg, 90 days after first administration
[19] = 4.9 mg/kg i.v. single dose (LD10)

NCCNc1ccc(NCCN)c2c1C(=O)c1ccncc1C2=O [6,9-bis[(2-aminoethyl)amino]benzo[g]isoquinoline-5,10-dione]
cardiotoxic effects (heart [1]): devoid of cardiotoxic effects

O=C1c2ccccc2C(=O)c2c(NCCNCCO)ccc(NCCNCCO)c21 [Ametantrone]
E1/2 (reduction potential) [2, 9]: -0.68
antitumor activity (tumors): significant antitumor activity

NCCNc1ccc(NCCN)c2c1C(=O)c1ccncc1C2=O.O=C(O)/C=C\C(=O)O.O=C(O)/C=C\C(=O)O [BBR 2778, 6,9-bis[(2-aminoethyl)amino]benzo[g]isoquinoline-5,10-dione dimaleate]
redox process [2, 9]: reversible
E1/2 (reduction potential) [2, 9]: -0.54
reduction potential lower than for mitoxantrone (difference) ([2]; vs mitoxantrone): 0.2-0.3 V
cardiotoxic effects (heart [1]): devoid of cardiotoxic effects
cardiotoxicity (conclusion) (heart [3]): does not exert significant cardiotoxicity patterns
M.T.S. (Mean Total Score) (heart [4]; [10]): 0
No. affect. hearts / No. exam. hearts (heart [4]; [10]): 1/9
Heart Weight (%) (heart [4]; [10]): -6%
antitumor efficacy against leukemia at the dose and schedule employed (leukemia): equally effective

COc1cccc2c1C(=O)c1c(O)c3c(c(O)c1C2=O)C[C@@](O)(C(=O)CO)C[C@@H]3O[C@H]1C[C@H](N)[C@H](O)[C@H](C)O1 [Doxorubicin]
cardiac toxicity (background) (tumors): severe cumulative and irreversible cardiac toxicity
antitumor activity (tumors): outstanding antitumor activity
M.T.S. (heart [5]; [11]): 1
No. affect. hearts / No. exam. hearts (heart [5]; [11]): 6/6
M.T.S. (heart [5]; [12]): 1.1
No. affect. hearts / No. exam. hearts (heart [5]; [12]): 6/6
M.T.S. (heart [5]; [13]): 1.5
No. affect. hearts / No. exam. hearts (heart [5]; [13]): 6/6
M.T.S. (heart [5]; [14]): 2.2
No. affect. hearts / No. exam. hearts (heart [5]; [14]): 6/6

O=C1c2c(O)ccc(O)c2C(=O)c2c(NCCNCCO)ccc(NCCNCCO)c21 [Mitoxantrone]
E1/2 (reduction potential) [2, 9]: -0.74
E1/2 [6]: -0.775 V
cardiac toxicity (background) (tumors): diminished cardiotoxicity when compared to doxorubicin
toxic side effects in clinical studies relative to doxorubicin (tumors; clinical studies): far less toxic side effects than those resulting from doxorubicin therapy
focal myocardial damage (histology) (myocardium): high incidence of focal myocardial damage in mice similar to that observed with doxorubicin
No. affect. hearts / No. exam. hearts (heart [3]; 4.5 mg/kg/day i.v. q7d × 3): 5/5
cardiotoxicity (conclusion) (heart [3]): strongly cardiotoxic
in vitro efficacy relative to doxorubicin [7]: higher efficacy than doxorubicin at equivalent concentrations
leukopenia vs. controls (bone marrow): 70%
M.T.S. (heart [5]; [15]): 1.4
No. affect. hearts / No. exam. hearts (heart [5]; [15]): 6/6
M.T.S. (heart [5]; [16]): 2.6
No. affect. hearts / No. exam. hearts (heart [5]; [16]): 5/5
M.T.S. (heart [5]; [17]): 1.25
No. affect. hearts / No. exam. hearts (heart [5]; [17]): 6/6
M.T.S. (heart [5]; [18]): 2.5
No. affect. hearts / No. exam. hearts (heart [5]; [18]): 6/6
M.T.S. (Mean Total Score) (heart [4]; [19]): 6
No. affect. hearts / No. exam. hearts (heart [4]; [19]): 7/7
Heart Weight (%) (heart [4]; [19]): -44%
microsomal O2.^- formation (human liver): does not result in a significant increase in microsomal O2.^- formation
antitumor efficacy against leukemia at the dose and schedule employed (leukemia): equally effective
M.T.S. (heart [8]; 1.1 mg/kg i.v., cumulative 11 mg/kg, 78 days after first administration): 4
M.T.S. (heart [8]; 1.1 mg/kg i.v., cumulative 11 mg/kg, 139 days after first administration): 6
M.T.S. (heart [8]; 1.8 mg/kg i.v., cumulative 18 mg/kg, 78 days after first administration): 6.5
Total cardiotoxicity score (heart [8]; 1.8 mg/kg, 139 days (footnote diamond-solid)): 8
M.T.S. (heart [8]; 2.5 mg/kg i.v., cumulative 17.5 mg/kg, 78 days after first administration): 7.1
No. affect. hearts / No. exam. hearts (heart [8]; 2.5 mg/kg i.v., cumulative 17.5 mg/kg, 139 days after first administration): 0/0
Total cardiotoxicity score (heart [8]; affected hearts marked °: 1.1 mg/kg 78 and 139 days, 1.8 and 2.5 mg/kg 78 days): 3-8
mortality rate (heart [8]; high dose (2.5 mg/kg/day), administration suspended after 7 dosings): high mortality rate

COc1cccc2c1C(=O)c1c(O)c3c(c(O)c1C2=O)C[C@@](O)(C(C)=O)C[C@@H]3O[C@H]1C[C@H](N)[C@H](O)[C@H](C)O1 [daunorubicin]
E1/2 [6]: -0.625 V
cardiac toxicity (background) (tumors): severe cumulative and irreversible cardiac toxicity
antitumor activity (tumors): outstanding antitumor activity
